We go through eight compounds from patent publication US11814367B2, “Inhibitors of glycogen synthase 1 (GYS1) and methods of use thereof” (Maze Therapeutics, Inc., priority 2021, dated 2023).

The target of assay [1] is hGYS1 enzyme (recombinant hGYS1/GN1 protein) (Homo sapiens (Human), UniProt P13807). In words: GYS1 coupled enzyme assay (PK/LDH). The assay is classed as biochemical. Conditions: hGYS1/GN1 50 nM, UDP-Glucose 0.8 mM, G6P 1 mM; geometric mean of at least 2 runs.
Assay [2] deals with hGYS2 enzyme (recombinant hGYS2/GN1 protein) (Homo sapiens (Human), UniProt P54840). Put plainly: GYS2 coupled enzyme assay (PK/LDH). Conditions: geometric mean of at least 2 assay runs on separate days, read-out: Avg_IC50. Format: biochemical. In outline: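 Read-out: NADH loss at 340 nm, read each minute for 10 min, slope normalized to controls, duplicate % inhibition fit to Hill (0–100). Enzyme: 200 nM hGYS2/GN1; substrate 2 mM UDP-glucose plus 0.2% glycogen and 2 mM G6P; pH 7.5 Tris, 2.5% DMSO.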
Sequence of hGYS2 enzyme (recombinant hGYS2/GN1 protein) (P54840 whole entry): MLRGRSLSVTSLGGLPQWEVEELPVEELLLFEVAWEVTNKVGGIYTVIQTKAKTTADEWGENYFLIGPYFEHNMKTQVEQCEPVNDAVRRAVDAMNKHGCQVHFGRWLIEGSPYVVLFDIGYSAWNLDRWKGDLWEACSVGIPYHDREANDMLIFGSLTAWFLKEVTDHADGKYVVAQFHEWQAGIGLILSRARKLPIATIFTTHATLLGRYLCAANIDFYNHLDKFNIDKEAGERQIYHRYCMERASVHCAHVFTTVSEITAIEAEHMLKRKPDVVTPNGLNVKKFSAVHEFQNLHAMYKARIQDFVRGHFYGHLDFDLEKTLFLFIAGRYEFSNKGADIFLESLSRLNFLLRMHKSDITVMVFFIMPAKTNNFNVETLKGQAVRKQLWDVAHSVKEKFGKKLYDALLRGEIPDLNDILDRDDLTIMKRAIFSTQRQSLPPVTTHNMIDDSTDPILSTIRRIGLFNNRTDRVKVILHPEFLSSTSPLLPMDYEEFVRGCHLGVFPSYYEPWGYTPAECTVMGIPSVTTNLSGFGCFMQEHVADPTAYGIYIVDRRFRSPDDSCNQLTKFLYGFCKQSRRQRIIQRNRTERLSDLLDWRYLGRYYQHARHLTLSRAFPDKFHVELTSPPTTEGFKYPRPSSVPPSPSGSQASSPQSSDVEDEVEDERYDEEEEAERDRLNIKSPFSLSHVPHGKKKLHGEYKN
Sequence of hGYS2 enzyme (recombinant hGYS2/GN1 protein) (P46976 whole entry partner): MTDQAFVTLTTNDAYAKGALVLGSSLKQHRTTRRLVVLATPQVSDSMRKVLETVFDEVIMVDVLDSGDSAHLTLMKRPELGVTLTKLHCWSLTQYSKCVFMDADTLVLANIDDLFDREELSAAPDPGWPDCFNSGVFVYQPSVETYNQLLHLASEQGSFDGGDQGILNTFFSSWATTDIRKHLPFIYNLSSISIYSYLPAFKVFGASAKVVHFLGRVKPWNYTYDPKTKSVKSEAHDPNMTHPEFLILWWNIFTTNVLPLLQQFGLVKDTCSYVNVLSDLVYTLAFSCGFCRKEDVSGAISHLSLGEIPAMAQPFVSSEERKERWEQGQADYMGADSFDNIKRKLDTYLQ

Assay [3] has as its system hGYS1 enzyme / glycogen synthesis in HeLa cells. Put plainly: GYS1 cell based assay (glycogen synthesis, Glucose-glo). Conditions: Homo sapiens, HeLa, 24 h, 24 h incubation, 20 mM glucose, geometric mean of at least 2 runs. The arrangement: species or system human. In outline:
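HeLa cells starved 24 h in medium containing only 1× Glutamax were plated onto compound in medium with 20 mM glucose (1% DMSO final) for 24 h, 37 °C, 5% CO2. Acid lysates were Tris-quenched, glucoamylase-digested (pH 5.3, 1 h, 37 °C) and read by Glucose-glo luminescence. IC50 came from Hill fits, as geometric mean of ≥2 runs.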

Sequence of hGYS1 enzyme (recombinant hGYS1/GN1 protein) (P13807 whole entry): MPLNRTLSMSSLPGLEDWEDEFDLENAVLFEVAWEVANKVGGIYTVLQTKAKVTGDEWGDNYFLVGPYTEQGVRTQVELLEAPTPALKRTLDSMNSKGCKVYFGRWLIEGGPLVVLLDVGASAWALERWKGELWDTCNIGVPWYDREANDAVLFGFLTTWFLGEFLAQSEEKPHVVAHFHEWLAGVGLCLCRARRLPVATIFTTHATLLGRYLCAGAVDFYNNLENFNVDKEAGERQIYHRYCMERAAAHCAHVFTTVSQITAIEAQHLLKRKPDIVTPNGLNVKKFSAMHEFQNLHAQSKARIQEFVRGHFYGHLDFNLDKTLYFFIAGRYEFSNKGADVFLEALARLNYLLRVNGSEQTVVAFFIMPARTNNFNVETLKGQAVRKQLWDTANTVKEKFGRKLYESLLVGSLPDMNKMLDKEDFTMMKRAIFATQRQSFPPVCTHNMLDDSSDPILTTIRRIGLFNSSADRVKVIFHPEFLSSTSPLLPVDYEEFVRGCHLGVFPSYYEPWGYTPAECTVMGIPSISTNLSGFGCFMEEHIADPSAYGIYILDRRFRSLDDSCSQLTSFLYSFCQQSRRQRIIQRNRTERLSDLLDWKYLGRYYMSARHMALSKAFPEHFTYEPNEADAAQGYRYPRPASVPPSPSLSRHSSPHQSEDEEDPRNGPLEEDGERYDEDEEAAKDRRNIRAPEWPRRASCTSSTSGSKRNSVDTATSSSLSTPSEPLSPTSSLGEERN
Sequence of hGYS1 enzyme (recombinant hGYS1/GN1 protein) (P46976 whole entry partner): as the sequence (P46976 whole entry partner) above

Turning to `CC(C)c1ccc([C@@H](NC(=O)[C@@H]2C[C@@H](F)CN2C(=O)Cc2cccn3c(=O)[nH]nc23)c2ccccc2)cc1F` [Compound 379, (2S,4R)-4-fluoro-N-[(S)-[3-fluoro-4-(propan-2-yl)phenyl](phenyl)methyl]-1-(2-{3-oxo-2H,3H-[1,2,4]triazolo[4,3-a]pyridin-8-yl}acetyl)pyrrolidine-2-carboxamide], the values for the IC50 in assay [1], in assay [2] and in assay [3] were 0.008 µM, > 100 µM and 0.19 µM, respectively.
For `CC(C)c1ccc([C@@H](NC(=O)[C@@H]2C[C@@H](F)CN2C(=O)Cn2ccnc2)c2ccccc2)cc1F` [Compound 380, (2S,4R)-4-fluoro-N-[(S)-[3-fluoro-4-(propan-2-yl)phenyl](phenyl)methyl]-1-[2-(1H-imidazol-1-yl)acetyl]pyrrolidine-2-carboxamide] the same measures were 0.047 µM, > 100 µM and 0.45 µM.
For `CC(C)c1ccc([C@@H](NC(=O)[C@@H]2C[C@@H](F)CN2C(=O)[C@@H]2CNC(=O)O2)c2ccccc2)cc1F` [Compound 381, (2S,4R)-4-fluoro-N-[(S)-[3-fluoro-4-(propan-2-yl)phenyl](phenyl)methyl]-1-[(5S)-2-oxo-1,3-oxazolidine-5-carbonyl]pyrrolidine-2-carboxamide], in that order: 0.058 µM, > 100 µM and 0.44 µM.
Take `CC(C)c1ccc([C@@H](NC(=O)[C@@H]2C[C@@H](F)CN2C(=O)[C@H]2CNC(=O)O2)c2ccccc2)cc1F` [Compound 382, (2S,4R)-4-fluoro-N-[(S)-[3-fluoro-4-(propan-2-yl)phenyl](phenyl)methyl]-1-[(5R)-2-oxo-1,3-oxazolidine-5-carbonyl]pyrrolidine-2-carboxamide]: the IC50 in assay [1] was 0.034 µM; in assay [2] it was > 100 µM; in assay [3], 0.52 µM.
For `CC(C)c1ccc([C@@H](NC(=O)[C@@H]2C[C@@H](F)CN2C(=O)Cc2nnc(C(F)F)o2)c2ccccc2)cc1F` [Compound 383, (2S,4R)-1-{2-[5-(difluoromethyl)-1,3,4-oxadiazol-2-yl]acetyl}-4-fluoro-N-[(S)-[3-fluoro-4-(propan-2-yl)phenyl](phenyl)methyl] pyrrolidine-2-carboxamide], in that order: 0.027 µM, > 100 µM and 0.41 µM.
As for `CC(C)c1ccc([C@@H](NC(=O)[C@@H]2C[C@@H](F)CN2C(=O)Cn2cnnc2)c2ccccc2)cc1F` [Compound 384, (2S,4R)-4-fluoro-N-[(S)-[3-fluoro-4-(propan-2-yl)phenyl](phenyl)methyl]-1-[2-(4H-1,2,4-triazol-4-yl)acetyl]pyrrolidine-2-carboxamide], the results for the IC50 in assay [1], in assay [2] and in assay [3] were 0.033 µM, > 100 µM and 0.7 µM, respectively.
For `CC(C)c1ccc([C@@H](NC(=O)[C@@H]2C[C@@H](F)CN2C(=O)Cc2cnn[nH]2)c2ccccc2)nc1F` [Compound 385, (2S,4R)-1-(2-(1H-1,2,3-triazol-5-yl)acetyl)-4-fluoro-N—((S)-(6-fluoro-5-isopropylpyridin-2-yl)(phenyl)methyl)pyrrolidine-2-carboxamide], in that order: 0.017 µM, > 100 µM and 0.39 µM.
For `Cc1ccc2c(CC(=O)N3C[C@H](F)C[C@H]3C(=O)N[C@@H](c3ccccc3)c3ccc(C(C)C)c(F)n3)cccc2n1` [Compound 387, (2S,4R)-4-fluoro-N-[(S)-[6-fluoro-5-(propan-2-yl)pyridin-2-yl](phenyl)methyl]-1-[2-(2-methylquinolin-5-yl)acetyl]pyrrolidine-2-carboxamide], in that order: 0.005 µM, 36.2 µM and 0.03 µM.
